Results reported in patent US9775844B2, “Heterocyclic compounds and uses thereof” (Infinity Pharmaceuticals, Inc., priority 2014, dated 2017).

Columns and labels:
PI3K α = PI3K α (Homo sapiens (Human), UniProt P42336); experiment: PI3-Kinase Promega ADP-Glo Max assay; type: biochemical
PI3K β = PI3K β (Homo sapiens (Human), UniProt P42338); experiment: PI3-Kinase Promega ADP-Glo Max assay; type: biochemical
PI3K δ = PI3K δ (Homo sapiens (Human), UniProt O00329); experiment: PI3-Kinase Promega ADP-Glo Max assay; type: biochemical
PI3K γ = PI3K γ (Homo sapiens (Human), UniProt P48736); experiment: PI3-Kinase Promega ADP-Glo Max assay; type: biochemical
PI3K-δ in RAJI cells = PI3K-δ in RAJI cells (Homo sapiens (Human), UniProt O00329); experiment: RAJI p110 δ assay (PI3K-δ selective cellular assay, phospho-AKT); type: cell-based; settings: phospho-AKT; read-out: RAJI p110 δ assay IC50
[1] = biological target: PI3K-γ in RAW264.7 macrophages (Mus musculus (Mouse), UniProt Q9JHG7); experiment: Raw264.7 p110 γ assay (PI3K-γ selective cellular assay, C5a-stimulated phospho-AKT); type: cell-based; settings: for IC50: phospho-AKT, read-out: Raw264.7 p110 γ assay IC50
Sequence of PI3K-γ in RAW264.7 macrophages (Q9JHG7 whole entry): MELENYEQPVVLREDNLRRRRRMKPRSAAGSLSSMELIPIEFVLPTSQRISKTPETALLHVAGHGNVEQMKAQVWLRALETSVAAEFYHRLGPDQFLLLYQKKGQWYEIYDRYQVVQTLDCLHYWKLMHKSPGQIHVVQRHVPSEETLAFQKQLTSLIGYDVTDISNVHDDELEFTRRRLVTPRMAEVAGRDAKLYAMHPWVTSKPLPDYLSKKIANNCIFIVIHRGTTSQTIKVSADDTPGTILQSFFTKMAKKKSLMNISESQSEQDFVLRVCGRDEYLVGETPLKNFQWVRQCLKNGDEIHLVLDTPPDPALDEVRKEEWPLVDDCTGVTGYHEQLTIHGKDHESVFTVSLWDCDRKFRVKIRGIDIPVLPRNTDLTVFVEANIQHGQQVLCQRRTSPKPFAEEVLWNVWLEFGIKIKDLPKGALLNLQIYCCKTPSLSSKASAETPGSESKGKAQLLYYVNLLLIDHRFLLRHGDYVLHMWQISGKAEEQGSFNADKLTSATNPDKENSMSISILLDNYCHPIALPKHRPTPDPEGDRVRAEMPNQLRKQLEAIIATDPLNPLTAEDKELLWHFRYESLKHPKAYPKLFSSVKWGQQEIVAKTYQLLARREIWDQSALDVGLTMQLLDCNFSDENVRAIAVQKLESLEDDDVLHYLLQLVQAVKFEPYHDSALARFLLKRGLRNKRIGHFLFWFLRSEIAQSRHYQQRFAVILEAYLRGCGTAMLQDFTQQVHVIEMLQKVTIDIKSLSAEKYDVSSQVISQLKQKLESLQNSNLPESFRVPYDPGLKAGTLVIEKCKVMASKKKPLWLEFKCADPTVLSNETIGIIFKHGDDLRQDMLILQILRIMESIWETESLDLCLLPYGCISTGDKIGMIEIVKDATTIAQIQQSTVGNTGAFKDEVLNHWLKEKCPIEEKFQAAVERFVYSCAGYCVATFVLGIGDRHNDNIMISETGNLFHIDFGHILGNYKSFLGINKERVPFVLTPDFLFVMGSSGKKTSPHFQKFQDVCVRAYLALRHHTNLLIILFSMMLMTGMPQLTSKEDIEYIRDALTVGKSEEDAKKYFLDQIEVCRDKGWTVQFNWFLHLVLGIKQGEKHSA

Sequence of PI3K β (P42338 whole entry): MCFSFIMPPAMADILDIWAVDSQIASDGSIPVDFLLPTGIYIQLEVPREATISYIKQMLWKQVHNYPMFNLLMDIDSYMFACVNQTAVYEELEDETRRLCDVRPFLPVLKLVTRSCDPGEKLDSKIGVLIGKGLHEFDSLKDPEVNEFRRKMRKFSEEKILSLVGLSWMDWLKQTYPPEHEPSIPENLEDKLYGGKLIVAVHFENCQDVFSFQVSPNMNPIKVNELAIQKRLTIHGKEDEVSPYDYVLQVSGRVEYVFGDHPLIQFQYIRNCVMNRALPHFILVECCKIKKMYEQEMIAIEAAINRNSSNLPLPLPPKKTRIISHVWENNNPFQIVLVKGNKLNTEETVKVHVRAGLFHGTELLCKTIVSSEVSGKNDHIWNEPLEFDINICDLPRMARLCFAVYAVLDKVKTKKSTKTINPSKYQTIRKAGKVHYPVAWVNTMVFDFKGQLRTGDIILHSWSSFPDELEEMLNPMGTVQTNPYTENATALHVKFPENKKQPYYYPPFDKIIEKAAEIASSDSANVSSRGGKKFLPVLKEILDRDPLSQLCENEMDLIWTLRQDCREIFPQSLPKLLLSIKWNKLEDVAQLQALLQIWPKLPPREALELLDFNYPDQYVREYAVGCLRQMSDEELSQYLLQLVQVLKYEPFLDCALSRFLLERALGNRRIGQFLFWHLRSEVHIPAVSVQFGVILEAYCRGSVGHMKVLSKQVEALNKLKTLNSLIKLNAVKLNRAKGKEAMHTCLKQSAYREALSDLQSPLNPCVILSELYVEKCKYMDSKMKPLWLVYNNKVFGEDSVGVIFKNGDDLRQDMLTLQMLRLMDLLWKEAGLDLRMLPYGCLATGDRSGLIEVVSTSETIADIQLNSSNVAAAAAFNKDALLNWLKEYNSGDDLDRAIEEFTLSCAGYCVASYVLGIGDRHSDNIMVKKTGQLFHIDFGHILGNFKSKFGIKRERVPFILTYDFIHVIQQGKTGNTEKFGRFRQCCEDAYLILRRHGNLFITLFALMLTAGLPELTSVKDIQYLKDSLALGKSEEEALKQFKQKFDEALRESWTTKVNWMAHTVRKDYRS
Sequence of PI3K β (P27986 whole entry partner): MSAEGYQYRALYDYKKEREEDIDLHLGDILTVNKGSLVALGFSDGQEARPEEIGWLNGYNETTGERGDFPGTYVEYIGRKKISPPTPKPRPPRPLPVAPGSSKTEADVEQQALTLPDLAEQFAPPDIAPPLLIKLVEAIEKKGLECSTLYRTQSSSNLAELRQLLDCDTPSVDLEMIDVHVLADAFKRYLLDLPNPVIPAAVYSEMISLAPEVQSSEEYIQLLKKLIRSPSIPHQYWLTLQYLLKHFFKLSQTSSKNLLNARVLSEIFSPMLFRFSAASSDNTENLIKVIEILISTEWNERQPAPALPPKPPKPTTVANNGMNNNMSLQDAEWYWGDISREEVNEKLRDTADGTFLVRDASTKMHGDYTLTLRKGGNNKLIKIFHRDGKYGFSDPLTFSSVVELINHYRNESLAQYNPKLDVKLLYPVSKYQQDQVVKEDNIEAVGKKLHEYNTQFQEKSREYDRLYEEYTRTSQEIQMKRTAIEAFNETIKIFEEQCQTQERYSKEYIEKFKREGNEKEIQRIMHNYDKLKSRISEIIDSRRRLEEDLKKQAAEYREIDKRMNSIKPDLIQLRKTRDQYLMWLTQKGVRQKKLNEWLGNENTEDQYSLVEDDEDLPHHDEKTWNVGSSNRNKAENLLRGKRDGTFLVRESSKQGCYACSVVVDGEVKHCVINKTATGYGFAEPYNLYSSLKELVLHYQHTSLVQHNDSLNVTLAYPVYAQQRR
Sequence of PI3K γ (P48736 whole entry): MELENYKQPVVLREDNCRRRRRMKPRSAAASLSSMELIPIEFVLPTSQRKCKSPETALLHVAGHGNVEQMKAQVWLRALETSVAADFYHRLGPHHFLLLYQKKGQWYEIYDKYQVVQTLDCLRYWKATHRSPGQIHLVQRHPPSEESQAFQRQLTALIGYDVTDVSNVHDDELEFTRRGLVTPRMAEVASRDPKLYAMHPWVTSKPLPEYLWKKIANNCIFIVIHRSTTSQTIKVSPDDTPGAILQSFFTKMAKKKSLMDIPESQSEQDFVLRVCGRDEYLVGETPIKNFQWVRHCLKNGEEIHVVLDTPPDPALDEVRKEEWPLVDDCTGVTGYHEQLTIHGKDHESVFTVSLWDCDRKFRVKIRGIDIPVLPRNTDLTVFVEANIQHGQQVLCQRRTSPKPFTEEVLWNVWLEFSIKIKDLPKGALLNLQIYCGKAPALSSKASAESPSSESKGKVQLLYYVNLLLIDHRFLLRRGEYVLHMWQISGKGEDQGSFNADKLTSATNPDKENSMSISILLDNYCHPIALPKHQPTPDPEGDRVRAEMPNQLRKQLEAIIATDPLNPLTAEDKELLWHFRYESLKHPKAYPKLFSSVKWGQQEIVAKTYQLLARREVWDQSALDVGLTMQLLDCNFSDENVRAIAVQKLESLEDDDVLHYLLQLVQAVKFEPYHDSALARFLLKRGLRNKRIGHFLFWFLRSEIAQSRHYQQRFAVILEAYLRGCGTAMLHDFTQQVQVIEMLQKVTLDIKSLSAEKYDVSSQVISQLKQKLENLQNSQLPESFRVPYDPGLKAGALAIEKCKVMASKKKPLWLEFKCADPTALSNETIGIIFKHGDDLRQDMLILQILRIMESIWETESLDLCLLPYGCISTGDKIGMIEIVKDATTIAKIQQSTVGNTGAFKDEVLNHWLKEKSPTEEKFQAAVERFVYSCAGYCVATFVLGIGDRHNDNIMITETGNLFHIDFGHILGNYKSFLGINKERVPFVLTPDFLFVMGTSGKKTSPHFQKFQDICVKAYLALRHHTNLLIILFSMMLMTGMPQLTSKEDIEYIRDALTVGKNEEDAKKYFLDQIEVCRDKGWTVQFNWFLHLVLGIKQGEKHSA
Sequence of PI3K δ (O00329 whole entry): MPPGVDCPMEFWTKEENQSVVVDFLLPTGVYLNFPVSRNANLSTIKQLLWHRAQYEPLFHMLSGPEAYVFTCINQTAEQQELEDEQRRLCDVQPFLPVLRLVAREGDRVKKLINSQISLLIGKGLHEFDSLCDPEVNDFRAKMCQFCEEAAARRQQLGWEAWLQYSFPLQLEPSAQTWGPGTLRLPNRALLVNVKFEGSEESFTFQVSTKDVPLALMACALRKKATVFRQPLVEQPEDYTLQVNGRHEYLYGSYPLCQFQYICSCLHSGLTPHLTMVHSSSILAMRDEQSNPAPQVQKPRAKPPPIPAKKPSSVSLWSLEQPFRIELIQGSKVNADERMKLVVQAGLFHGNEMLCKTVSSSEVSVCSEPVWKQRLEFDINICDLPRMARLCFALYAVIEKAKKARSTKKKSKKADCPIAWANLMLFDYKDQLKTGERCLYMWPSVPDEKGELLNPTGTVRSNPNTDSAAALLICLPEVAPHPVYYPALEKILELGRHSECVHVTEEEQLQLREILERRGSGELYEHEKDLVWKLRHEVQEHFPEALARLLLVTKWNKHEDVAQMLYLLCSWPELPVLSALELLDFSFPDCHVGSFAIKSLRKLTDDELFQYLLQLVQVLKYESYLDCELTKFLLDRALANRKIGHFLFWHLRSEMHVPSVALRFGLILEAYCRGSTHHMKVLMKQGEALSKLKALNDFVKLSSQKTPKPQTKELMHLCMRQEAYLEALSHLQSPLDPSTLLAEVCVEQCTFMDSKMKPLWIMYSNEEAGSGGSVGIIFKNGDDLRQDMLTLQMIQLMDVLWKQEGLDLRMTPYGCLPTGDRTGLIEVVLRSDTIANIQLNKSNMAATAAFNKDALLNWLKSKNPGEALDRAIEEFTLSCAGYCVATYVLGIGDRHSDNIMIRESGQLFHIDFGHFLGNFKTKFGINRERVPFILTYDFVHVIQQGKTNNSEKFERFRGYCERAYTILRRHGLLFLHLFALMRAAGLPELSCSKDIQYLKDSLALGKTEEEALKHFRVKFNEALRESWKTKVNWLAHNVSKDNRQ
Sequence of PI3K δ (P27986 whole entry partner): as the sequence (P27986 whole entry partner) above

| Structure (SMILES) | IC50 (PI3K α) [nM] | IC50 (PI3K β) [nM] | IC50 (PI3K δ) [nM] | IC50 (PI3K γ) [nM] | PI3K δ/PI3K γ IC50 (selectivity) (PI3K γ) | IC50 (PI3K-δ in RAJI cells) [nM] | RAJIδ/Raw264.7 γ IC50 (selectivity) [1] | IC50 [1] [nM] |
| --- | --- | --- | --- | --- | --- | --- | --- | --- |
| Cc1nn(C)cc1C#Cc1cccc2cc([C@H](C)NC(=O)c3c(N)nn4cccnc34)n(-c3ccccc3)c(=O)c12 [Compound 19] | 5000 to 10000 | 5000 to 10000 | 5000 to 10000 | 100 to 500 | Y (Y = 50 to <850) | 500 to 1000 | Y (Y = 50 to <850) | 1 to 50 |
| C[C@H](NC(=O)c1c(N)nn2cccnc12)c1cc2cccc(C#Cc3ccc(=O)n(C)c3)c2c(=O)n1-c1ccccc1 [Compound 20] | 5000 to 10000 | 5000 to 10000 | 1000 to 5000 | 1 to 100 | X (X = 10 to <50) | 100 to 500 | X (X = 10 to <50) | 1 to 50 |
| COC(C)C#Cc1cccc2cc([C@H](C)NC(=O)c3c(N)nn4cccnc34)n(-c3ccccc3)c(=O)c12 (some centres unmarked) [Compound 22] | 5000 to 10000 | 5000 to 10000 | 5000 to 10000 | 100 to 500 | X (X = 10 to <50) | 1000 to 10000 | X (X = 10 to <50) | 1 to 50 |
| C[C@H](NC(=O)c1c(N)nn2cccnc12)c1cc2cccc(C#Cc3cncn3C)c2c(=O)n1C1CC1 [Compound 23] | 1000 to 5000 | 1000 to 5000 | 5000 to 10000 | 1000 to 5000 | W (W = >1 to <10) | 100 to 500 | W (W = >1 to <10) | 1 to 50 |
| C[C@H](NC(=O)c1c(N)nn2cccnc12)c1cc2cccc(C#CC3CC3)c2c(=O)n1C1CC1 [Compound 24] | 1000 to 5000 | 1000 to 5000 | 1000 to 5000 | 1000 to 5000 | W (W = >1 to <10) | 100 to 500 | W (W = >1 to <10) | 1 to 50 |
| C[C@H](NC(=O)c1c(N)nn2cccnc12)c1cc2cccc(C#Cc3ccncc3)c2c(=O)n1-c1ccccc1 [Compound 26] | 5000 to 10000 | 5000 to 10000 | 5000 to 10000 | 100 to 500 | X (X = 10 to <50) | 100 to 500 | Y (Y = 50 to <850) | 1 to 50 |
| C[C@H](NC(=O)c1c(N)nn2cccnc12)c1cc2cccc(C#CC3CCOCC3)c2c(=O)n1-c1ccccc1 [Compound 27] | 5000 to 10000 | 5000 to 10000 | 5000 to 10000 | 100 to 500 | X (X = 10 to <50) | 1 to 100 | Y (Y = 50 to <850) | 1 to 50 |
| COc1cc(C#Cc2cccc3cc([C@H](C)NC(=O)c4c(N)nn5cccnc45)n(-c4ccccc4)c(=O)c23)ccn1 [Compound 28] | 5000 to 10000 | 5000 to 10000 | 5000 to 10000 | 1000 to 5000 | W (W = >1 to <10) | 100 to 500 | X (X = 10 to <50) | 1 to 50 |
| C[C@H](NC(=O)c1nccnc1N)c1cc2cccc(C#Cc3cnn(C)c3)c2c(=O)n1-c1ccccc1 [Compound 29] | 5000 to 10000 | 1000 to 5000 | 1000 to 5000 | 100 to 500 | X (X = 10 to <50) | 1 to 100 | W (W = >1 to <10) | 1 to 50 |
| C[C@H](NC(=O)c1c(N)nn2cccnc12)c1cc2cccc(C#Cc3cc[nH]c(=O)c3)c2c(=O)n1-c1ccccc1 [Compound 31] | 5000 to 10000 | 5000 to 10000 | 5000 to 10000 | 100 to 500 | X (X = 10 to <50) | 100 to 500 | W (W = >1 to <10) | 50 to 100 |
| C[C@H](NC(=O)c1c(N)nn2cccnc12)c1cc2cccc(C#Cc3ccccn3)c2c(=O)n1-c1ccccc1 [Compound 32] | 5000 to 10000 | 5000 to 10000 | 5000 to 10000 | 100 to 500 | Y (Y = 50 to <850) | 500 to 1000 | Y (Y = 50 to <850) | 1 to 50 |
| C[C@H](NC(=O)c1c(N)nn2cccnc12)c1cc2cccc(C#CC=O)c2c(=O)n1-c1ccccc1 [Compound 36] | 1000 to 5000 | 1 to 500 | 1000 to 5000 | 1 to 100 | X (key: V = 0.1 to 1; W = >1 to <10; X = 10 to <50; Y = 50 to <850) | 100 to 500 | W (key: V = 0.1 to 1; W = >1 to <10; X = 10 to <50; Y = 50 to <850) | 100 to 10000 |

More lines, now with the values ahead:

| IC50 (PI3K α) [nM] | IC50 (PI3K β) [nM] | IC50 (PI3K δ) [nM] | IC50 (PI3K γ) [nM] | PI3K δ/PI3K γ IC50 (selectivity) (PI3K γ) | IC50 (PI3K-δ in RAJI cells) [nM] | RAJIδ/Raw264.7 γ IC50 (selectivity) [1] | IC50 [1] [nM] | Structure (SMILES) |
| --- | --- | --- | --- | --- | --- | --- | --- | --- |
| 5000 to 10000 | 5000 to 10000 | 5000 to 10000 | 100 to 500 | Y (Y = 50 to <850) | 100 to 500 | Y (Y = 50 to <850) | 1 to 50 | C[C@H](NC(=O)c1c(N)nn2cccnc12)c1cc2cccc(C#Cc3ccn(C)n3)c2c(=O)n1-c1ccccc1 [Compound 30] |
| 5000 to 10000 | 5000 to 10000 | 5000 to 10000 | 500 to 1000 | X (X = 10 to <50) | 500 to 1000 | X (X = 10 to <50) | 50 to 100 | CCOC(C#Cc1cccc2cc([C@H](C)NC(=O)c3c(N)nn4cccnc34)n(-c3ccccc3)c(=O)c12)OCC [Compound 34] |
| 5000 to 10000 | 5000 to 10000 | 5000 to 10000 | 100 to 500 | Y (Y = 50 to <850) | 500 to 1000 | Y (Y = 50 to <850) | 1 to 50 | Cc1c(C#Cc2cccc3cc([C@H](C)NC(=O)c4c(N)nn5cccnc45)n(-c4ccccc4)c(=O)c23)cnn1C [Compound 35] |
| 5000 to 10000 | 5000 to 10000 | 5000 to 10000 | 1000 to 5000 | W (W = >1 to <10) | 1000 to 10000 | Y (Y = 50 to <850) | 1 to 50 | Cc1nn(C)c(C)c1C#Cc1cccc2cc([C@H](C)NC(=O)c3c(N)nn4cccnc34)n(-c3ccccc3)c(=O)c12 [Compound 37] |
| 5000 to 10000 | 5000 to 10000 | 5000 to 10000 | 1 to 100 | Y (Y = 50 to <850) | 500 to 1000 | Y (Y = 50 to <850) | 1 to 50 | Cc1ncc(C#Cc2cccc3cc([C@H](C)NC(=O)c4c(N)nn5cccnc45)n(-c4ccccc4)c(=O)c23)n1C [Compound 38] |
| 5000 to 10000 | 5000 to 10000 | 5000 to 10000 | 100 to 500 | X (X = 10 to <50) | 1000 to 10000 | X (X = 10 to <50) | 50 to 100 | C[C@H](NC(=O)c1cnn2cccnc12)c1cc2cccc(C#Cc3cnn(C)c3)c2c(=O)n1-c1ccccc1 [Compound 39] |
| 1000 to 5000 | 5000 to 10000 | 5000 to 10000 | 1 to 100 | Y (Y = 50 to <850) | 100 to 500 | Y (Y = 50 to <850) | 1 to 50 | Cc1nc(C#Cc2cccc3cc([C@H](C)NC(=O)c4c(N)nn5cccnc45)n(-c4ccccc4)c(=O)c23)cs1 [Compound 40] |
